In ChEMBL document CHEMBL2331477, “Effect of helical conformation and side chain structure on γ-secretase inhibition by β-peptide foldamers: insight into substrate recognition” (J Med Chem, 2013):
Calls of active or inactive are those of the source. The rule behind the calls is not given here.

Tests used:
[1] = molecular target: T1, Gamma-secretase (Homo sapiens) (UniProt Q96BI3+Q9NZ42+Q8WW43+P49768+Q92542+P49810); assay: Inhibition of gamma-secretase (unknown origin) expressed in N2a NL/N cells coexpressing betaAPPNL and NotchdeltaE assessed as Abeta40 secretion at 100 nM by ELISA; assay type: cell-based
[2] = molecular target: T1, Gamma-secretase (Homo sapiens); assay: Inhibition of gamma-secretase in human H4 glioma cells assessed as Abeta production at 0.1 to 10 µM by immunoblot analysis; assay type: cell-based
[3] = molecular target: T1, Gamma-secretase (Homo sapiens); assay: Inhibition of gamma-secretase (unknown origin) expressed in N2a NL/N cells coexpressing betaAPPNL and NotchdeltaE assessed as Abeta42 secretion at 100 nM by ELISA; assay type: cell-based
Gamma-secretase [4] = assay: Inhibition of gamma-secretase (unknown origin) expressed in N2a NL/N cells coexpressing betaAPPNL and NotchdeltaE assessed as Abeta42 secretion by ELISA; assay type: cell-based, Homo sapiens
Gamma-secretase [5] = assay: Inhibition of gamma-secretase (unknown origin) expressed in N2a NL/N cells coexpressing betaAPPNL and NotchdeltaE assessed as Abeta40 secretion by ELISA; assay type: cell-based, Homo sapiens
[6] = molecular target: T1, Gamma-secretase (Homo sapiens); assay: Displacement of biotinylated PS1NTF from gamma-secretase (unknown origin); assay type: protein-complex assay
Gamma-secretase [7] = assay: Inhibition of gamma-secretase in human HEK293 cells expressing APPNL/NotchDeltaE/EGFP/UAS-firefly luciferase assessed as inhibition of notch intracellular cytoplasmic domain secretion by ELISA; assay type: cell-based
Gamma-secretase [8] = assay: Inhibition of gamma-secretase in human HEK293 cells expressing APPNL/NotchDeltaE/EGFP/UAS-firefly luciferase assessed as inhibition of IAbeta40 secretion by ELISA; assay type: cell-based
[9] = molecular target: T1, Gamma-secretase (Homo sapiens); assay: Ratio of IC50 for gamma-secretase-mediated inhibition of notch intracellular cytoplasmic domain secretion to IC50 for gamma-secretase-mediated inhibition of Abeta42 secretion in human HEK293 cells expressing APPNL/NotchDeltaE/EGFP/UAS-firefly luciferase by ELISA; assay type: cell-based
Gamma-secretase [10] = assay: Inhibition of gamma-secretase in human HEK293 cells expressing APPNL/NotchDeltaE/EGFP/UAS-firefly luciferase assessed as inhibition of Abeta42 secretion by ELISA; assay type: cell-based

CC(=O)N[C@H]1CCC[C@@H]1C(=O)N[C@H]1CCC[C@@H]1C(=O)N[C@@H](CC(N)=O)CC(=O)N[C@H]1CCC[C@@H]1C(=O)N[C@H]1CCC[C@@H]1C(=O)N[C@H]1CCC[C@@H]1C(=O)N[C@H]1CCC[C@@H]1C(=O)N[C@H]1CCC[C@@H]1C(=O)N[C@H]1CCC[C@@H]1C(=O)N[C@H]1CCC[C@@H]1C(=O)N[C@H]1CCC[C@@H]1C(=O)N[C@H]1CCC[C@@H]1C(N)=O
inhibition [1]: Active
inhibition [2]: Active
inhibition [3]: Active
IC50 (Gamma-secretase [4]): 0.88 nM
IC50 (Gamma-secretase [5]): 0.555 nM
Activity [6]: Active
IC50 (Gamma-secretase [7]): 3.16 nM
IC50 (Gamma-secretase [8]): 84.6 nM
Ratio IC50 [9]: 0.0462
IC50 (Gamma-secretase [10]): 68.4 nM
